{"source": "patent US20150031760A1", "about": "“PHARMACEUTICAL COMPOSITION FOR PREVENTING OR TREATING NERVOUS SYSTEM DISORDERS COMPRISING SULFURETIN OR PHARMACEUTICALLY ACCEPTABLE SALT THEREOF” (Research and Business Foundation SUNGKYUNKWAN UNIVERSITY, priority 2010, published 2015)", "assay_type_in_all_cases": "cell-based, human", "key": {"β-CTF": {"tested_on": "β-CTF", "test": "Western blot, β-CTF level", "conditions": "Swedish APP mutant SH-SY5Y cells; sulfuretin 2.5, 5, 10 and 20 μM for 24 h; dose-dependent (p<0.001)", "description": "For the experiments shown in FIGS. 11 to 13, SH-SY5Y and stable swedish APP mutant SH-SY5Y cells were grown in DMEM supplemented with 10% heat-inactivated FBS and 0.1% penicillin/streptomycin at 37° C. in a humidified atmosphere of 5% CO2 and 95% air. Cells were fed every three days and sub-cultured once they reached 80-90% confluency in […] cell culture dishes. Amyloid beta25-35 was prepared as a 20 mM stock immediately before use and diluted in PBS to the indicated final concentration. Prior to use, amyloid beta25-35 was dissolved in sterilized distilled water and was aggregated at 37° C. for five days. The test compounds were dissolved in DMSO and the stock solutions were added directly to the culture media to a final concentration of 0.1% (v/v) DMSO.\nSH-SY5Y and stable swedish APP mutant SH-SY5Y cells (1×10^6 cells/well in 6-well plates) were incubated at 37° C. with or without 20 μM amyloid beta 25-35 for 6 or 24 h, with or without sulfuretin pretreatment, and then washed and harvested with ice-cold PBS and centrifuged at 400×g for 3 minutes. […] The protein concentration was determined using a protein assay kit (Thermo Scientific). […] Protein bands were quantified by densitometric analysis using Image Gauge 4.0 software (Fujifilm, Stamford, Conn., USA). […]"}, "SH-SY5Y cells [1]": {"tested_on": "SH-SY5Y cells", "test": "Inhibition of intracellular [Ca2+] influx (Fura-2-AM fluorescence)", "conditions": "hydrogen peroxide-induced, 30 minutes pretreatment", "description": "(§1) The incubator was maintained at a temperature of 37° C., and a mixed gas of 95% air and 5% CO2 was continuously supplied thereto to provide suitable conditions for cell culture. The cells were cultured in a 6-well plate or a 96-well plate at each of densities of 1×10^6 and 2×10^4 cells/well 24 hours before the experiment. […] Sulfuretin was used in ethanol and used at a final concentration of 0.1% or less.\nIn order to measure inhibitory effects on intracellular [Ca^2+] influx caused by oxidative stress, cells were labeled with Fura-2-AM fluorescence, and quantitative analysis was carried out using a fluorescence meter. Specifically, 10 μl of 5 μM Fura-2-AM was added to each well of the 6-well plate (in which the cells have been cultured) and then allowed to react for 30 minutes. Herein, Fura-2-AM in the incubator was covered with a silver foil such that it would not be exposed to light. After completion of the incubation, the plate was pretreated with sulfuretin for 30 minutes, and then reacted with hydrogen peroxide for 30 minutes to induce the intracellular influx of [Ca^2+]. Then, the cells that reacted with the Fura-2-AM fluorescent substance were washed twice with cold HEPES and detached with HEPES. Then, the cells were centrifuged at 400 g for 3 minutes. The supernatant was removed carefully, stirred weakly with 0.5 ml of HEPES buffer, and then 150 μl was dispensed into each well of a fresh 96-well plate. The fluorescence of the sample dispensed into the fresh 96-well plate was measured at an excitation wavelength of […] and an emission wavelength of 520 nm using a fluorescence meter (Perkinelmer, USA).\nThe measured value was substituted into the following equation to calculate intracellular [Ca^2+] nM: […]"}, "SH-SY5Y cells [2]": {"tested_on": "SH-SY5Y cells", "test": "LDH assay, amyloid beta25-35-induced cytotoxicity", "conditions": "pretreatment with sulfuretin at 2.5, 5, 10 and 20 μM; 20 μM amyloid beta25-35 for 24 h (p<0.001)"}, "SH-SY5Y cells [3]": {"tested_on": "SH-SY5Y cells", "test": "Inhibition of ROS production (DCFH-DA fluorescence)", "conditions": "hydrogen peroxide-induced, 2 hours pretreatment", "description": "as §1\nIn order to measure ROS elimination activity, cells were labeled with DCFH-DA fluorescence, and quantitative analysis was performed using a fluorescence meter.\nSpecifically, the 6-well plate in which the cells have been cultured was pretreated with sulfuretin for 2 hours, and then reacted with hydrogen peroxide for 30 minutes to induce ROS. Then, 10 μl of 10 mM DCFH-DA was added to the plate and allowed to react with the cells for 30 minutes. Herein, DCFH-DA in the incubator was covered with a foil such that it would not be exposed to light. The cells that reacted with the DCFH-DA fluorescent substance were detached using cold PBS and centrifuged at 400 g for 3 minutes. The centrifugation process was repeated twice to wash the fluorescent substance. The washed cells were briefly stirred with 1 ml of PBS, and 100 μl was dispensed into each of a fresh 96-well plate. Then, fluorescence was measured at an excitation wavelength of 488 nm and an emission wavelength of 515 nm using a fluorescence meter (Perkinelmer, USA).\nThe measured value was substituted into the following equation to calculate ROS production:\nROS production (%)=[(O.D. of control−O.D. of test group)/O.D. of control]×100"}}}
{"smiles": "O=C1/C(=C/c2ccc(O)c(O)c2)Oc2cc(O)ccc21", "note": "[sulfuretin]", "values": [{"measurement": "β-CTF level", "setting": "β-CTF", "value": "significantly inhibited"}, {"measurement": "intracellular [Ca2+] influx", "setting": "SH-SY5Y cells [1]; sulfuretin 0.1 μg/ml", "value": "≤ 566", "unit": "nM"}, {"measurement": "intracellular [Ca2+] influx", "setting": "SH-SY5Y cells [1]; sulfuretin 0.5 μg/ml", "value": "≤ 395", "unit": "nM"}, {"measurement": "intracellular [Ca2+] influx", "setting": "SH-SY5Y cells [1]; sulfuretin 1 μg/ml", "value": "≤ 371", "unit": "nM"}, {"measurement": "intracellular [Ca2+] influx", "setting": "SH-SY5Y cells [1]; sulfuretin 5 μg/ml", "value": "≤ 243", "unit": "nM"}, {"measurement": "LDH activity (LDH release)", "setting": "SH-SY5Y cells [2]", "value": "significantly decreased"}, {"measurement": "ROS production", "setting": "SH-SY5Y cells [3]; sulfuretin 0.1 μg/ml", "value": "≤ 147", "unit": "%"}, {"measurement": "ROS production", "setting": "SH-SY5Y cells [3]; sulfuretin 0.5 μg/ml", "value": "≤ 126", "unit": "%"}, {"measurement": "ROS production", "setting": "SH-SY5Y cells [3]; sulfuretin 1 μg/ml", "value": "≤ 123", "unit": "%"}, {"measurement": "ROS production", "setting": "SH-SY5Y cells [3]; sulfuretin 5 μg/ml", "value": "≤ 103", "unit": "%"}]}
